Where two headings read alike, the source gives them in different places. Each block holds one molecule with its values, some of them ahead of it.
Key:
[1] = test system: CYP3A4; parameters: method as in PMID 24748562; settings: in vitro; read-out: EC50 for CYP3A4 mRNA induction; cited from earlier work
[2] = test system: CYP2A6; parameters: method as in PMID 26347206, PMID 31445021; settings: in vitro; cited from earlier work
[3] = parameters: method as in Novartis, unpublished data; settings: ref Novartis, unpublished data; cited from earlier work
[4] = cited from earlier work
[5] = Steady-state plasma PK of trametinib and metabolite M5 when coadministered with NE/EE; settings: trametinib 2 mg daily + NE/EE, day 21, plasma
Description: Both regimens were continued until day 21 (Figure 1).
Extracts were analyzed using LC‐MS/MS.

[6] = test system: UGT1A1; parameters: method as in PMID 26347206, PMID 31445021; settings: in vitro; cited from earlier work
[7] = test system: CYP2B6; parameters: method as in PMID 26347206, PMID 31445021; settings: in vitro; cited from earlier work
[8] = test system: CYP2D6; parameters: method as in PMID 26347206, PMID 31445021; settings: in vitro; cited from earlier work
[9] = test system: phospho‐MEK1; parameters: method as in PMID 23971497; settings: in vitro; read-out: half maximal inhibitory concentration to inhibit phospho‐MEK1; cited from earlier work
[10] = test system: CYP1A2; parameters: method as in PMID 26347206, PMID 31445021; settings: in vitro; cited from earlier work
[11] = test system: CYP3A4; settings: in vitro, cited from earlier work
[12] = test system: CYP3A4; parameters: method as in PMID 26347206, PMID 31445021; settings: in vitro; cited from earlier work
[13] = overall study, N = 19
[14] = clinical; settings: female, human, plasma, oral
[15] = Steady-state plasma PK of NE and EE, NE/EE given alone or with trametinib (phase 1 DDI study); settings: for AUC(0-t): AUClast; for AUC: AUCtau
[16] = parameters: method as in PMID 23971497; settings: human plasma; cited from earlier work
[17] = basis for study design, no reference given; cited from earlier work
[18] = female, human, plasma, oral, adjusted geo‐mean, NE/EE + T, linear mixed-effects model
[19] = female, human, plasma, oral, adjusted geo‐mean, NE/EE alone, linear mixed-effects model
[20] = female, human, plasma, oral, geo‐mean (geo‐CV%), NE/EE alone, day 5, plasma
[21] = female, human, plasma, oral, mean (SD), NE/EE alone, day 5, plasma

Structure (SMILES): CC(=O)Nc1cccc(-n2c(=O)n(C3CC3)c(=O)c3c(Nc4ccc(I)cc4F)n(C)c(=O)c(C)c32)c1 [trametinib, Trametinib]
CYP2A6 inhibition (in words) [2]: no inhibitory activity
findings in animal reproduction studies (in words) [3]: maternal and developmental toxicities
peak:trough ratio ([4]; 2 mg once daily): 1.8
time to reach Cmax (tmax) ([4]; 2 mg once daily): 1.5 h
clinically relevant systemic exposure (concentration) ([4]; based on the Cmax of 22.2 ng/mL): ≈ 0.04 μM
intrasubject variability [4]: more than 30%
geo‐mean AUC0‐24 ([4]; trametinib 2 mg in the absence of COC): 370 ng·h/mL
Cmax, geo‐mean (geo‐CV%) [5]: 27.4 (35.4) ng/mL
UGT1A1 inhibition (in words) [6]: inhibitor
CYP2B6 inhibition (in words) [7]: no inhibitory activity
CYP2D6 inhibition (in words) [8]: no inhibitory activity
IC50 [9]: 7 ± 0.1 nM
CYP1A2 inhibition (in words) [10]: no inhibitory activity
maximal effect of CYP3A4 induction, % of that of rifampicin ([11]; hepatocytes, ref Novartis, unpublished data): 69%
EC50 ([11]; hepatocytes, ref Novartis, unpublished data, read-out: EC50 for CYP3A4 induction): 1700 nM
CYP3A4 induction (in words) [11]: low‐level inducer
CYP3A4 inhibition (in words) [12]: no inhibitory activity
AE of special interest: patients with bleeding events [13]: 15.8%
AE of special interest: patients with cardiac‐related event [13]: 5.3%
AE of special interest: patients with hepatic disorders [13]: 26.3%
AE of special interest: patients with hypertension [13]: 15.8%
AE of special interest: patients with skin toxicity [13]: 63.2%

Tmax [14]: 1.02 h
half-life [14]: 9.06 h
CL/F, geo‐mean (geo‐CV%) ([15]; NE/EE alone, day 5, plasma): 9.41 (76.9) L/h
Ctrough, geo‐mean (geo‐CV%) ([15]; NE/EE alone, day 5, plasma): 1060 (165.5) pg/mL
Ctrough, mean (SD) ([15]; NE/EE alone, day 5, plasma): 1940 (2850) pg/mL
tmax, median (range) ([15]; NE/EE alone, day 5, plasma): 1.00 (0.50‐24) h
AUC(0-t) [15, 18]: 127 ng·h/mL
AUC(0-t) [15, 19]: 106 ng·h/mL
AUC [15, 18]: 131 ng·h/mL
AUC [15, 19]: 110 ng·h/mL
Cmax [15, 18]: 17.1 ng/mL
Cmax [15, 19]: 15.2 ng/mL
half-life ([15]; female, human, plasma, oral, t½, median (range), NE/EE alone, day 5, plasma): 9.22 h
Structure (SMILES): C#C[C@]1(O)CC[C@H]2[C@@H]3CCC4=CC(=O)CC[C@@H]4[C@H]3CC[C@@]21C [NE, norethindrone]

Structure (SMILES): Cc1c(=O)n(C)c(Nc2ccc(I)cc2F)c2c(=O)n(C3CC3)c(=O)n(-c3cccc(N)c3)c12 [M5]
share of drug‐related material in plasma [16]: < 11%
IC50 [9]: 9 ± 1 nM

Ctrough, mean (SD) ([15]; NE/EE alone, day 5, plasma): 22.2 (12.6) pg/mL
AUCtau, adjusted geo‐mean ([15]; NE/EE alone, linear mixed-effects model): 1.06 ng·h/mL
AUC(0-t) [15, 18]: 1.07 ng·h/mL
AUC(0-t) [15, 19]: 1.02 ng·h/mL
AUC(0-t) [15, 20]: 0.983 ng·h/mL
AUC(0-t) [15, 21]: 1.15 ng·h/mL
AUC [15, 18]: 1.12 ng·h/mL
AUC ([15]; female, human, plasma, oral, geo‐mean (geo‐CV%), NE/EE alone (1 mg NE/0.035 mg EE daily), day 5, plasma): 1.02 ng·h/mL
AUC [15, 21]: 1.16 ng·h/mL
Cmax [15, 18]: 0.128 ng/mL
Cmax [15, 19]: 0.14 ng/mL
Cmax [15, 20]: 0.135 ng/mL
Cmax [15, 21]: 0.151 ng/mL
Tmax ([15]; female, human, plasma, oral, tmax, median (range), NE/EE alone, day 5, plasma): 0.98 h
Structure (SMILES): C#C[C@]1(O)CC[C@H]2[C@@H]3CCc4cc(O)ccc4[C@H]3CC[C@@]21C [EE, ethinyl estradiol]
mean t1/2 [17]: 20 h

From paper PMC9304124 (Clinical Pharmacology in Drug Development, 2022)
